Results on 46 compounds are retold here after BindingDB's records for patent US20240018157 (Schrödinger, 2024).

Experiment [1] has as its target T1, Mucosa-associated lymphoid tissue lymphoma translocation protein 1 (Homo sapiens, UniProt Q9UDY8).
T1 sequence (Q9UDY8 whole entry): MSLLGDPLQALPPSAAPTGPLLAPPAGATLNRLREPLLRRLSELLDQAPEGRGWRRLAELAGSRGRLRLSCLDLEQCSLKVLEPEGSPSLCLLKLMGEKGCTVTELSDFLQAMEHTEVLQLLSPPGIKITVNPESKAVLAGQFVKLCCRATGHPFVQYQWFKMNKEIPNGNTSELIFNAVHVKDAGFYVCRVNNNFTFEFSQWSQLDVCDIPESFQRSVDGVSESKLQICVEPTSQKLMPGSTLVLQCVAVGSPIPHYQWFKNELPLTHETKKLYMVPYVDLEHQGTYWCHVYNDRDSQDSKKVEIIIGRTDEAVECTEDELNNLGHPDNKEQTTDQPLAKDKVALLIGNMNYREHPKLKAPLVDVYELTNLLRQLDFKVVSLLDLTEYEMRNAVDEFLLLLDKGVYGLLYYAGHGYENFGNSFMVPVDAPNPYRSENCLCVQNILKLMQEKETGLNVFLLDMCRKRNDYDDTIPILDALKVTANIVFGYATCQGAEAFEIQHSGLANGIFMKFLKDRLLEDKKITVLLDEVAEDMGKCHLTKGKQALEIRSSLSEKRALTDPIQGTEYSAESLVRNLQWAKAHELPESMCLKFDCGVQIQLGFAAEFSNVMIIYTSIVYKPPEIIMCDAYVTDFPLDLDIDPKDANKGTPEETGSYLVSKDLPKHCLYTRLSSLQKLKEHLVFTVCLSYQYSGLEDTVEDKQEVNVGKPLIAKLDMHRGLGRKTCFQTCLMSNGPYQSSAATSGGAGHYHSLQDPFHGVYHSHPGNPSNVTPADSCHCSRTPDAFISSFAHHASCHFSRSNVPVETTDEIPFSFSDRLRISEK
Put plainly: MALT1 Protease Assay 1. The method, then: The final assay buffer includes 2 nM of MALT1 full-length protein, 50 μM Ac-LRSR-AMC substrate, 50 mM Tris pH 7.5, 600 mM Sodium Citrate, 1 mM DTT, 1 mM EDTA, and 0.05% BSA in 384-well plate format using black microtiter square well plates (Optiplate 384-F, Perkin Elmer). Test compounds were dissolved in 100% DMSO at stock of 10 mM, with final DMSO concentration 0.1%. Test compounds were pre-incubated with MALT1 protein for 2 h at room temperature. Substrate was added after the pre-incubation and fluorescence signal was measured using Envision at excitation 355 nm and emission 460 nm after 8 hr incubation at RT. Increase in the assay signal was linear over this period and proportional with increase in the enzyme content.

The target in experiment [2] is T1, Mucosa-associated lymphoid tissue lymphoma translocation protein 1. Put plainly: MALT1 Protease Assay 2. The method, then:
Test compounds were dissolved in 100% DMSO at stock of 10 mM, with final DMSO concentration 0.1%. Test compounds were pre-incubated with MALT1 protein for 2 h at room temperature.

The term IC50 denotes the concentration needed to halve the response being measured. A low value points to greater potency. In turn, `COCc1ncc(NC(=O)N2C[C@@](C)(C(F)(F)F)c3c2cnc2cc(Cl)nn32)cc1Cl` [US20240018157, Example 45] yielded an IC50 in experiment [1] of 10 to 100 nM.
`C[C@]1(C(F)(F)F)CN(C(=O)Nc2cnc(-n3nccn3)c(Cl)c2)c2cnc3cc(Cl)nn3c21` [US20240018157, Example 15] registered a half-inhibitory concentration (IC50) in experiment [1] of 10 to 100 nM.
Same read-out and setting: with `C[C@@]1(C(F)(F)F)CN(C(=O)Nc2cnc(-n3cc(O)cn3)c(Cl)c2)c2cnc3cc(Cl)nn3c21` [US20240018157, Example 48] the figure was less than 10 nM; with `C[C@@]1(C(F)(F)F)CN(C(=O)Nc2cnc(OC(F)F)c(Cl)c2)c2cnc3cc(Cl)nn3c21` [US20240018157, Example 49], less than 10 nM; with `CC1(C)CCN(C(=O)Nc2cnc(-n3nccn3)c(Cl)c2)c2cnc3cc(Cl)nn3c21` [US20240018157, Example 7], less than 10 nM.
On the same count and under the same terms, with `O=C(Nc1cnc(-n2nccn2)c(Cl)c1)N1CC(C(F)(F)F)c2c1cnc1cc(Cl)nn21` (stereo unspecified) [US20240018157, Example 2] the figure was less than 10 nM; with `C[C@]1(C2CC2)CN(C(=O)Nc2cnc(-n3nccn3)c(Cl)c2)c2cnc3cc(Cl)nn3c21` [US20240018157, Example 3], 10 to 100 nM; with `Cc1cc2ncc3c(n2n1)[C@@](C)(C(F)(F)F)CN3C(=O)Nc1cnc(-n2nccn2)c(Cl)c1` [US20240018157, Example 31], 10 to 100 nM.
The same measure, in the same setting: with `C[C@@]1(C(F)(F)F)CN(C(=O)Nc2cnc([C@H]3CCCO3)c(Cl)c2)c2cnc3cc(Cl)nn3c21` [US20240018157, Example 34] the figure was less than 10 nM; with `C[C@@]1(C(F)(F)F)CN(C(=O)Nc2cnc(-n3nccn3)c(C(F)(F)F)c2)c2cnc3cc(Cl)nn3c21` [US20240018157, Example 40], less than 10 nM; with `C[C@@]1(C(F)(F)F)CN(C(=O)Nc2cnc([C@@H]3CCCCO3)c(Cl)c2)c2cnc3cc(Cl)nn3c21` [US20240018157, Example 46], 10 to 100 nM.
For `C[C@]1(C(F)(F)F)CN(C(=O)Nc2cnc(-n3nccn3)c(Cl)c2)c2cnc3cc(F)nn3c21` [US20240018157, Example 38], the IC50 in experiment [1] was 10 to 100 nM.
For the compound `CO[C@@H]1CN(C(=O)Nc2cnc(-n3nccn3)c(Cl)c2)c2cnc3cc(Cl)nn3c2C1(C)C` [US20240018157, Example 14], the half-maximal inhibitory concentration (IC50) in experiment [1] fell in the range of 100 to 1000 nM.
The same measure, in the same setting: with `C[C@@]1(C(F)(F)F)CN(C(=O)Nc2cnc(-n3nccn3)c(C#N)c2)c2cnc3cc(Cl)nn3c21` [US20240018157, Example 41] the figure was less than 10 nM.
Still for that read-out and setting: with `C[C@@H]1CCN(C(=O)Nc2cnc(-n3nccn3)c(Cl)c2)c2cnc3cc(Cl)nn3c21` [US20240018157, Example 5] the figure was less than 10 nM; with `Cn1ccc(-c2ncc(NC(=O)N3C[C@@](C)(C(F)(F)F)c4c3cnc3cc(Cl)nn43)cc2Cl)n1` [US20240018157, Example 25], less than 10 nM; with `C[C@@]1(C(F)(F)F)CN(C(=O)Nc2cnc(-n3cccn3)c(Cl)c2)c2cnc3cc(Cl)nn3c21` [US20240018157, Example 26], less than 10 nM.
In turn, `Cc1cc(NC(=O)N2C[C@@](C)(C(F)(F)F)c3c2cnc2cc(Cl)nn32)cnc1-n1nccn1` [US20240018157, Example 21] showed an IC50 in experiment [1] of less than 10 nM.
On the same count and under the same terms, with `CC1(C)c2c(cnc3cc(Cl)nn23)N(C(=O)Nc2cnc(-n3nccn3)c(Cl)c2)C[C@H]1O` [US20240018157, Example 12] the figure was less than 10 nM; with `C[C@H]1CCN(C(=O)Nc2cnc(-n3nccn3)c(Cl)c2)c2cnc3cc(Cl)nn3c21` [US20240018157, Example 6], 10 to 100 nM.
In experiment [2], `C[C@]1(C(F)(F)F)CN(C(=O)Nc2cnnc(C(F)F)c2)c2cnc3cc(C#N)nn3c21` [US20240018157, Example 189] returned a concentration for half-maximal inhibition (IC50) of 100 to 1000 nM.
In turn, `C[C@@]1(C(F)(F)F)CN(C(=O)Nc2cnnc(C(F)F)c2)c2cnc3cc(Cl)nn3c21` [US20240018157, Example 65] displayed a concentration for half-maximal inhibition (IC50) in experiment [2] of 10 to 100 nM.
Still for that read-out and setting: with `C[C@@]1(C(F)(F)F)CN(C(=O)Nc2cnc(-n3ncc([C@@H](O)CO)n3)c(Cl)c2)c2cnc3cc(Cl)nn3c21` [US20240018157, Example 71] the figure was less than 10 nM.
Compound `CC1(C)c2c(cnc3cc(Cl)nn23)N(C(=O)Nc2cnc(-n3nccn3)c(Cl)c2)C[C@@H]1O` [US20240018157, Example 11] came in with an IC50 in experiment [1] of 10 to 100 nM.
The compound `COc1cnn(-c2ncc(NC(=O)N3C[C@@](C)(C(F)(F)F)c4c3cnc3cc(Cl)nn43)cc2Cl)n1` [US20240018157, Example 92] had an IC50 in experiment [2] of less than 10 nM.
On the same count and under the same terms, with `CN(C)C(=O)c1ncc(NC(=O)N2C[C@@](C)(C(F)(F)F)c3c2cnc2cc(Cl)nn32)cc1C(F)F` [US20240018157, Example 122] the figure was less than 10 nM; with `C[C@@]1(C(F)(F)F)CN(C(=O)n2nc(C(F)(F)F)cc2N)c2cnc3cc(Cl)nn3c21` [US20240018157, Example 175], more than 1000 nM; with `CNc1cc(NC(=O)N2C[C@@](C)(C(F)(F)F)c3c2cnc2cc(Cl)nn32)ncc1-n1nccn1` [US20240018157, Example 186], more than 1000 nM.
On the same count and under the same terms, with `CN1CC(Oc2cc(C(F)F)cc(NC(=O)N3C[C@@](C)(C(F)(F)F)c4c3cnc3cc(Cl)nn43)n2)C1` [US20240018157, Example 178] the figure was more than 1000 nM.
Same read-out and setting: with `C[S@+]([O-])c1ccc(NC(=O)N2C[C@@](C)(C(F)(F)F)c3c2cnc2cc(Cl)nn32)cc1C(F)F` [US20240018157, Example 116] the figure was less than 10 nM.
In experiment [1], `CO[C@H]1CN(C(=O)Nc2cnc(-n3nccn3)c(Cl)c2)c2cnc3cc(Cl)nn3c2C1(C)C` [US20240018157, Example 13] showed an IC50 of 10 to 100 nM.
Same read-out and setting: with `COc1ccc(NC(=O)N2C[C@@](C)(C(F)(F)F)c3c2cnc2cc(Cl)nn32)cc1Cl` [US20240018157, Example 19] the figure was less than 10 nM; with `Cc1cc2ncc3c(n2n1)C(C(F)(F)F)CCN3C(=O)Nc1cnc(-n2nccn2)c(Cl)c1` (stereo unspecified) [US20240018157, Example 10], less than 10 nM.
Consider `C[C@@]1(C(F)F)CN(C(=O)Nc2cnc(OC(F)F)c(Cl)c2)c2cnc3cc(Cl)nn3c21` [US20240018157, Example 205], for which, in experiment [2], the IC50 is less than 10 nM.
In experiment [2], `C[C@@]1(C(F)(F)F)CN(C(=O)N[C@H]2CCC(F)(F)C2)c2cnc3cc(Cl)nn3c21` [US20240018157, Example 166] showed a concentration for half-maximal inhibition (IC50) of more than 1000 nM.
The compound `C[C@]1(C(F)(F)F)CN(C(=O)Nc2cnc(-n3nccn3)c(Cl)c2)c2cnc3c(F)c(F)nn3c21` [US20240018157, Example 139] showed a half-maximal inhibitory concentration (IC50) in experiment [2] of more than 1000 nM.
Still for that read-out and setting: with `C[C@@]1(C(F)(F)F)CN(C(=O)n2nc(C(F)F)cc2N)c2cnc3cc(Cl)nn3c21` [US20240018157, Example 177] the figure was more than 1000 nM; with `CN(C)Cc1cnn(-c2ncc(NC(=O)N3C[C@@](C)(C(F)(F)F)c4c3cnc3cc(Cl)nn43)cc2Cl)n1` [US20240018157, Example 29], 10 to 100 nM.
Same read-out and setting: with `Cc1cn2ncc3c(c2n1)[C@](C)(C(F)(F)F)CN3C(=O)Nc1cnnc(C(F)F)c1` [US20240018157, Example 119] the figure was 10 to 100 nM; with `CC(O)c1cnn(-c2ncc(NC(=O)N3C[C@@](C)(C(F)(F)F)c4c3cnc3cc(F)nn43)cc2C(F)F)n1` (stereo partly specified) [US20240018157, Example 191], less than 10 nM; with `Cc1cc(NC(=O)N2C[C@@](C)(C(F)(F)F)c3c2cnc2cc(F)nn32)cnc1-n1nccn1` [US20240018157, Example 125], less than 10 nM.
In turn, `Cc1cc(NC(=O)N2C[C@](C)(C(F)(F)F)c3c2cnc2cc(F)nn32)cnc1-n1nccn1` [US20240018157, Example 124] showed an IC50 in experiment [2] of more than 1000 nM.
`C[C@@]1(C(F)F)CN(C(=O)Nc2cnc(-n3nccn3)c(Cl)c2)c2cnc3cc(Cl)nn3c21` [US20240018157, Example 128] returned a half-inhibitory concentration (IC50) in experiment [2] of less than 10 nM.
Compound `C[C@@]1(C(F)(F)F)CN(C(=O)Nc2cnc(N=S(C)(C)=O)c(Cl)c2)c2cnc3cc(Cl)nn3c21` [US20240018157, Example 85] showed a concentration for half-maximal inhibition (IC50) in experiment [2] of less than 10 nM.
Still for that read-out and setting: with `CO[C@]1(C(F)(F)F)CN(C(=O)Nc2cnc(-n3nccn3)c(Cl)c2)c2cnc3cc(Cl)nn3c21` [US20240018157, Example 135] the figure was 100 to 1000 nM; with `C[C@]1(C(F)(F)F)CN(C(=O)Nc2cnnc(C(F)F)c2)c2cnc3c(F)c(F)nn3c21` [US20240018157, Example 141], more than 1000 nM.
